# Assay results: paper PMC4844176 (Xenobiotica; the fate of foreign compounds in biological …, 2015)
# Like-named read-outs stand apart in the source and are kept apart here.
# Tests used:
# UGT2B17 = biological target: T1, UGT2B17 (Homo sapiens, UniProt O75795); assay: Inhibition by aprepitant of UGT2B17; format: in vitro ADME; details: UGT2B17 enzyme, pH 7.5, probe 4-MU
# T1 sequence (O75795 24-530): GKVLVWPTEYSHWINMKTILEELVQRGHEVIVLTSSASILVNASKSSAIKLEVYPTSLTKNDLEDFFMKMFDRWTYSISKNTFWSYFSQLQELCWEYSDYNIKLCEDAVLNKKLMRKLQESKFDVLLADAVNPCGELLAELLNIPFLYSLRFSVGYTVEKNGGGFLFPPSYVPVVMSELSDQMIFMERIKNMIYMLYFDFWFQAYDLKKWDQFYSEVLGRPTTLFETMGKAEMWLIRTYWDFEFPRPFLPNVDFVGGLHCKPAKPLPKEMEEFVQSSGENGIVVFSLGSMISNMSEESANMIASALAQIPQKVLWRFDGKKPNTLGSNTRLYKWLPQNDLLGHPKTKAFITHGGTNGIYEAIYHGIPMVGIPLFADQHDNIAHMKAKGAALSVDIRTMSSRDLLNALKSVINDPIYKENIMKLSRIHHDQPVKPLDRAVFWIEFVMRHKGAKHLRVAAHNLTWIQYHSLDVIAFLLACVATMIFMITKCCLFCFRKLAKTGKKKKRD
# other UGTs = assay: Inhibition by aprepitant of other UGTs; format: in vitro ADME, human; details: 1 µM aprepitant, UGTs other than UGT2B7
# UGT1A3 = biological target: T2, UGT1A3 (Homo sapiens, UniProt P35503); details: pH 7.5; for velocity of AP-G formation: 60 min
# T2 sequence (P35503 29-534): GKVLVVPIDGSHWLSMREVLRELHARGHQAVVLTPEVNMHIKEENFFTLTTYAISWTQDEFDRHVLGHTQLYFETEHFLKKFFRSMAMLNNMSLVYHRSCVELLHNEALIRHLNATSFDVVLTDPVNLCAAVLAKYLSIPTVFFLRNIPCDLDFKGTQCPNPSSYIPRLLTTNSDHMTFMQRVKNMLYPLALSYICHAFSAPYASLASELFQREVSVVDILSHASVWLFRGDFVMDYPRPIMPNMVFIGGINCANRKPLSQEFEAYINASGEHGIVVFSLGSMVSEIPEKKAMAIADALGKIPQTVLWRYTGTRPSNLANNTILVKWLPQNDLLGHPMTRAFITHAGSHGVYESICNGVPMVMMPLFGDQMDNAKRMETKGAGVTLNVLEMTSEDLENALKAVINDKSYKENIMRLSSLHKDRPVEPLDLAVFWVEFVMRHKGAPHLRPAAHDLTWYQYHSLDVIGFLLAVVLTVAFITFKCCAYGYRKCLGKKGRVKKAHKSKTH
# UGT1A6 = biological target: T3, UGT1A6 (Homo sapiens, UniProt P19224); assay: Inhibition by aprepitant of UGT1A6; format: in vitro ADME; details: UGT1A6 enzyme, pH 7.5, probe 4-MU
# T3 sequence (P19224 27-532): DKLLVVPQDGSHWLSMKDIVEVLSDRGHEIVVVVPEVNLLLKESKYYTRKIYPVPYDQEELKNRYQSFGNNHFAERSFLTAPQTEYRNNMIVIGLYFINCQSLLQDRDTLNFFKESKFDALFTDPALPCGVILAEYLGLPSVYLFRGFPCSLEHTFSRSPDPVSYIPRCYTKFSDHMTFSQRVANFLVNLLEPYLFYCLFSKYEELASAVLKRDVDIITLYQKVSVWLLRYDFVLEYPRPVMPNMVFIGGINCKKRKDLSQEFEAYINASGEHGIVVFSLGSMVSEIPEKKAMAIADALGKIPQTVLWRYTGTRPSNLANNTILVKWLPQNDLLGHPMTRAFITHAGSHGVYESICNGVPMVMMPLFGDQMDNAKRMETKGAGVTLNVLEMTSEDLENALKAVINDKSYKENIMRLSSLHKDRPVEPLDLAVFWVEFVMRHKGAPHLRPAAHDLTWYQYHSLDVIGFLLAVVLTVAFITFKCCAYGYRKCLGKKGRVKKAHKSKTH
# UGT1A4 = biological target: T4, UGT1A4 (Homo sapiens, UniProt P22310); details: pH 7.5; for velocity of AP-G formation: 60 min
# T4 sequence (P22310 29-534): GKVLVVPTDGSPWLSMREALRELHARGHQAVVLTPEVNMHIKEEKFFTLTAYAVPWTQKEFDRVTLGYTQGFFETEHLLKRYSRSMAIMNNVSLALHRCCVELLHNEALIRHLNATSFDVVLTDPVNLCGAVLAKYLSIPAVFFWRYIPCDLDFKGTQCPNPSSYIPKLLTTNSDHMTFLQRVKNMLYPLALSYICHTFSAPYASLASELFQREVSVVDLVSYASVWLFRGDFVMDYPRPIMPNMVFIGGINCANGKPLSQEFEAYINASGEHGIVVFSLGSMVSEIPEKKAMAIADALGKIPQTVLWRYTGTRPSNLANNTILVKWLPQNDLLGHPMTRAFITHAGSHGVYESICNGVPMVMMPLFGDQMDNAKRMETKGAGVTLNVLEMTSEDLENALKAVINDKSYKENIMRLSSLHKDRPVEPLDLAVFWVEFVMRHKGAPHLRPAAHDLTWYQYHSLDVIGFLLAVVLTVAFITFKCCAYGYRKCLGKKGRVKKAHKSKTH
smiles,measurement,setting,value
"C[C@@H](O[C@H]1OCCN(Cc2n[nH]c(=O)[nH]2)[C@H]1c1ccc(F)cc1)c1cc(C(F)(F)F)cc(C(F)(F)F)c1 [aprepitant, Aprepitant]",inhibition at 10 µM,UGT2B17,10%
same,inhibition of other UGTs,other UGTs,< 10%
same,velocity of AP-G formation,UGT1A3; 5 µM,44.1 ± 0.7 fmol/min/mg protein
same,velocity of AP-G formation,UGT1A3; 250 µM,717.3 ± 18.6 fmol/min/mg protein
same,CLint,UGT1A3; recombinant enzyme,15 µl/min/µg protein
same,inhibition at 10 µM,UGT1A6,19%
same,velocity of AP-G formation,UGT1A4; 5 µM,124.6 ± 6.4 fmol/min/mg protein
same,velocity of AP-G formation,UGT1A4; 250 µM,"2,710 ± 157.2 fmol/min/mg protein"
same,CLint,UGT1A4; recombinant enzyme,28 µl/min/µg protein
